Assay results taken from patent publication US20250082763A1, “COMBINATION DRUG FOR TREATING TRIPLE-NEGATIVE BREAST CANCER” (HINOVA PHARMACEUTICALS INC., priority 2022, published 2025).

Assays:
Format in all cases: cell-based
MFM-223 = test: Antiproliferation, CellTiter-Glo, 5 days, MFM-223; settings: Homo sapiens, 120 h, MFM-223, AR+ TNBC
Description: (§1) For MDA-MB-453, MFM-223, SUM159PT, MDA-MB-468, and HCC1937, 4,000, 3,000, 1,000, 3,000, and 3,000 cells were plated per well in 96-well microplates (Corning Inc), respectively. Cells were treated with serial dilutions of tested compounds with the maximum working concentration of 10 μM. Cell survival was measured 5 days later using a CellTiter-Glo luminescent cell viability assay kit (Promega Corporation). Luminescence was recorded by FLUOstar Omega microplate reader (BMG Labtech). Half maximal inhibitory concentration (IC50) was determined with GraphPad Prism using baseline correction (by normalizing to dimethyl sulfoxide (DMSO) control)

MDA-MB-468 = test: Antiproliferation, CellTiter-Glo, 5 days, MDA-MB-468; settings: Homo sapiens, 120 h, MDA-MB-468, AR− TNBC
Description: as §1

[1] = test system: AR+ TNBC cells (MDA-MB-453, SUM159PT and MFM-223) and AR- TNBC (MDA-MB-468 and HCC1937); test: Antiproliferation in AR positive and negative TNBC cells (summary over the cell line panel); settings: AR+ TNBC cells: MDA-MB-453, SUM159PT and MFM-223
Description: as §1

Androgen Receptor = molecular target: T1, Androgen Receptor (Homo sapiens, UniProt P10275); test: AR degradation in AR positive TNBC cells, western blotting; settings: MDA-MB-453, SUM159PT and MFM-223 cells, 24 hours, up to 1 μM, western blot
T1 construct: endogenous in cells
T1 sequence (P10275 1-920): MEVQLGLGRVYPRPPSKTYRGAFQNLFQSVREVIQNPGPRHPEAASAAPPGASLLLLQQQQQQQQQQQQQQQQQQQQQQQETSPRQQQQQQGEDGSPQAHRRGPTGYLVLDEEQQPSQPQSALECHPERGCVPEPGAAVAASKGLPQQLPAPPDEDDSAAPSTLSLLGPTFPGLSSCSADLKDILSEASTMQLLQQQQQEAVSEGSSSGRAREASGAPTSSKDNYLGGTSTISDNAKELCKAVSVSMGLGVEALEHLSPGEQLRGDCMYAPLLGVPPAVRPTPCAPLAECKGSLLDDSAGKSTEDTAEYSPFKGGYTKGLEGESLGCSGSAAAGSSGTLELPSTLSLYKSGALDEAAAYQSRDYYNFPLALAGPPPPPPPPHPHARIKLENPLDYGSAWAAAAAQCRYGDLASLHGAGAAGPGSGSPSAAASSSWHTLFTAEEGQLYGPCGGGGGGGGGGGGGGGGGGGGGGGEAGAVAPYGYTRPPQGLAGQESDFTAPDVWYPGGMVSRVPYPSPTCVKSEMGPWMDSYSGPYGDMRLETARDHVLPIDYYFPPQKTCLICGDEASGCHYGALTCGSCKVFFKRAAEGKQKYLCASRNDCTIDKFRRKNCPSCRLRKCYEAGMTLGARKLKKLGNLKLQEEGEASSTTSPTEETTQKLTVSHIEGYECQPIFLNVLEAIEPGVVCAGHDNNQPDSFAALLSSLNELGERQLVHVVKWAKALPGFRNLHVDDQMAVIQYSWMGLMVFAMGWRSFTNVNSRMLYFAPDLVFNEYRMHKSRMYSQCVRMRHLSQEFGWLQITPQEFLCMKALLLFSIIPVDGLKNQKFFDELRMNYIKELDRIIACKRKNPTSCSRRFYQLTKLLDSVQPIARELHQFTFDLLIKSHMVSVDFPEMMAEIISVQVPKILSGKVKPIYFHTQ
Description: Cells were plated in 12-well microplates and incubated at 37° C. overnight for attachment. Cells were then treated for 24 hours with serial dilutions of tested compounds with the maximum working concentration of 1 μM. Cell lysate were subjected to the western blotting assay against AR antibody.
Primary antibodies: Androgen Receptor (D6F11) XP® Rabbit mAb; Anti-GAPDH Rabbit mAb; Secondary antibody: Goat Anti-Rabbit IgG H&L (HRP)

MDA-MB-453 cells [2] = test: Combination with PI3K inhibitor Alpelisib, proliferation of MDA-MB-453 cells, Combination Index; settings: molar ratio to Alpelisib 1:27-9:1, 7 days
Description: (§2) Triple negative breast cancer MDA-MB-453 cells in logarithmic growth stage were inoculated into a 96-well plate at a concentration of 4×10^3 cells/well, and then incubated in an incubator at 37° C., 5% CO2, and saturated humidity for 24 h. To the negative control wells, were added RPMI 1640 cell culture medium containing 10% fetal bovine serum in the same volume as the drug. After cultured for 24 h, to the 96-well plate, were sequentially added AR PROTACs compounds 279, 281, 282, ARV-110, ARV-766 and PI3K inhibitor Alpelisib, respectively.
(§3) After addition of the drugs and co-incubation for 7 days, 10 μL of CCK-8 was added to each well, and then the plate was further cultured for 2 h. The absorbance value (OD) of each well was measured using a microplate reader at a wavelength of 450 nm. The survival rate was calculated using Prism software, the relative survival rate=(OD value of drug well/OD value of control well)×100%. Alternatively, 100 μL of medium was removed from each well, and then 50 μL of CTG was added. The plate was shaken in the dark for 2 min, allowed to stand for 10 min, and then measured using a microplate reader in Luminescence mode. Prism software was used to calculate the survival rate, the relative survival rate=(the RLU value of drug well/the RLU value of control well)×100%.

MDA-MB-453 cells [3] = test: Combination with chemotherapeutic drug Paclitaxel, proliferation of MDA-MB-453 cells, Combination Index; settings: molar ratio to Paclitaxel 20:1-5000:1, 7 days
Description: as §2, with “ARV-110” for “ARV-110, ARV-766”, “chemotherapeutic drug Paclitaxel,” for “PI3K inhibitor Alpelisib,”
as §3, with “adding” for “addition of”, “co-incubating” for “co-incubation”

AR degradation (words, FIG. 1) (Androgen Receptor)	Compound	IC50 (MFM-223) [µM]	IC50 (MDA-MB-468) [µM]	anti-proliferation activity in AR+ TNBC cells [1]	effect of the combination with Alpelisib on inhibiting proliferation (CI<1 = synergistic) (MDA-MB-453 cells [2])	effect of the combination with Paclitaxel on inhibiting proliferation (CI<1 = synergistic) (MDA-MB-453 cells [3])
superior degradation activity	N#Cc1ccc(O[C@H]2CC[C@H](NC(=O)c3cnc(N4CCC(CN5CCC6(CC5)CN(c5ccc7c(c5)C(=O)N(C5CCC(=O)NC5=O)C7=O)C6)CC4)nn3)CC2)cc1Cl (stereo partly shown) [Compound 279]	0.46	> 10	superior anti-proliferation activity	synergistic effect	synergistic effect
	N#Cc1ccc(O[C@H]2CC[C@H](NC(=O)c3ccc(N4CCC(CN5CCN(c6cc7c(cc6F)C(=O)N(C6CCC(=O)NC6=O)C7=O)CC5)CC4)nn3)CC2)cc1Cl (stereo partly shown) [ARV-110, reference compound]	4	> 10		synergistic effect	synergistic effect
